Converted amounts (≈) assume the structure as drawn.
Tests used:
Type in all cases: functional
[1] = Antiinflammatory activity in […] cells assessed as reduction in LPS-induced TNF-alpha release at 10 uM pre incubated for 1 hr followed by LPS stimulation and measured after 30 mins by ELISA
[2] = Antiinflammatory activity in […] cells assessed as reduction in LPS-induced NOX release at 10 uM pre incubated for 1 hr followed by LPS stimulation and measured after 30 mins by ELISA
[3] = Antiinflammatory activity in […] cells assessed as reduction in LPS-induced IL-6 release at 10 uM pre incubated for 1 hr followed by LPS stimulation and measured after 30 mins by ELISA
[4] = tested on: Staphylococcus aureus; test: Antibacterial activity against Staphylococcus aureus ATCC 6538 assessed as bacterial clearance incubated for 6 to 24 hrs by microbroth dilution method; details: time 6-24 hrs
[5] = tested on: Pseudomonas aeruginosa; test: Antibacterial activity against Pseudomonas aeruginosa ATCC 10145 assessed as bacterial clearance incubated for 6 to 24 hrs by microbroth dilution method; details: time 6-24 hrs
[6] = tested on: Escherichia coli; test: Antibacterial activity against Escherichia coli ATCC 12701 assessed as bacterial clearance incubated for 6 to 24 hrs by microbroth dilution method; details: time 6-24 hrs

Compound	inhibition at 10 µM [1]	inhibition at 10 µM [2]	inhibition at 10 µM [3]	also measured
NCCOCCOCCNc1nc(NCC2CCCO2)nc(-c2ccc(C(F)(F)F)cc2)n1 (configuration not stated)	10.1%	46.1%	23.4%	
NCCOCCOCCNc1nc(NCC2CCCO2)nc(-c2ccc(Cl)cc2)n1 (configuration not stated)	25.3%	30.7%	33.3%	
Cc1cccc(CNc2nc(NCCOCCOCCN)nc(-c3ccc(C(C)(C)C)cc3)n2)c1	25.3%	41.6%	56.7%	
Cc1ccc(-c2nc(NCCOCCOCCN)nc(NCC3CCCO3)n2)cc1 (configuration not stated)	50.1%	40%	50%	
CC(C)(C)c1ccc(-c2nc(NCCOCCOCCN)nc(Nc3ccc(Cl)cc3)n2)cc1	33.7%	34.2%	32.5%	
GENTAMICIN				MIC=>80 [4]: 0.5 µg/mL; MIC=>80 [5]: 7.94 µg/mL; MIC=>80 [6]: 0.99 µg/mL
CC(C)(C)c1ccc(-c2nc(NCCOCCN)nc(NCC3CCCO3)n2)cc1 (configuration not stated)	13.3%	33.1%	22.1%	
CC(C)(C)c1ccc(-c2nc(NCCOCCOCCN)nc(NCC3CCCCC3)n2)cc1	36.4%	21.5%	24.7%	
CC(C)(C)c1ccc(Nc2nc(NCCOCCOCCN)nc(-c3ccc(C(C)(C)C)cc3)n2)cc1	23.2%	29.2%	32.8%	
CC(C)(C)c1ccc(-c2nc(NCCCOCCOCCCN)nc(NCC3CCCO3)n2)cc1 (configuration not stated)	13.8%	19.1%	22.3%	
Cc1ccc(CNc2nc(NCCOCCOCCN)nc(-c3ccc(C(C)(C)C)cc3)n2)cc1	35.9%	15.3%	33.3%	
NCCOCCOCCNc1nc(NCC2CCCO2)nc(-c2ccc(F)cc2)n1 (configuration not stated)	15.1%	23%	33.4%	
Cc1onc(-c2ccccc2)c1C(=O)N[C@@H]1C(=O)N2[C@@H]1SC(C)(C)[C@@H]2C(=O)O [OXACILLIN]				MIC80 [4]: 0.06 µg/mL (≈ 0.149 µM); MIC80 [5]: 1.98 µg/mL (≈ 4.93 µM); MIC80 [6]: 0.25 µg/mL (≈ 0.623 µM)
CC(C)(C)c1ccc(-c2nc(NCCOCCOCCN)nc(NCc3cccc(F)c3)n2)cc1	35.6%	38.5%	46.7%	

Source: ChEMBL document CHEMBL5038645, “Discovery of Mycobacterium tuberculosis Rv3364c-Derived Small Molecules as Potential Therapeutic Agents to Target SNX9 for Sepsis” (J Med Chem, 2022)
